In patent US12410179B2, “Modulators of TNF alpha activity and uses thereof” (RayThera, Inc., priority 2023, dated 2025):

Target: TNFα (Homo sapiens, UniProt P01375)
Test: HEK-Blue hTNFα reporter assay
Type: cell-based
Design: purchased R&D biosystem (R&D Systems) 210-TA-020/CF
Conditions: HEK-Blue hTNFα reporter cells, SEAP readout; read-out: IC50 Range
Description: Stimulation of HEK293 cells by TNFα leads to activation of the NF-κB pathway. The potency of compounds was examined in HEK-Blue™ hTNFα reporter cells (Invivogen, Cat #hkb-tnfdmyd). HEK-Blue™ TNFα cells were generated by stable transfection of HEK293 cell line with a SEAP reporter gene under the control of the […] minimal promoter fused to NF-κB binding sites. Stimulation of HEK-Blue™ TNFα cells with TNFα triggers the activation of the NF-κB-inducible promoter and the production of SEAP. Levels of SEAP in the supernatant can be easily determined using QUANTI-Blue™ Solution (Invivogen, cat #rep-qbs) by reading the OD at 620-655 nm.
HEK-Blue™ TNFα cells were cultured in DMEM supplemented with 10% FBS, 100p/mL penicillin, 100 μg/mL streptomycin, 100 μg/mL normocin, 1 μg/mL puromycin, and 100 μg/mL zeocin. The culture was maintained in culture incubator with 5% CO2 at 37° C. When used for assay, the cells were gently rinsed twice with pre-warmed phosphate buffered saline (PBS) and detached in presence of PBS by tapping the flask or by using a cell scraper. The cells were spun to remove PBS and resuspended in fresh, pre-warmed test medium (DMEM supplemented with 10% FBS, 100p/mL penicillin, and 100 μg/mL streptomycin). A serial dilution of work solution of tested compound was made in DMSO with 1000× of final concentration, and 40 nL of compound DMSO solution was transferred into 384-well plates (Corning 3764) by Echo, and incubated with 10 μL of recombinant hTNFα (R&D biosystem, Cat #210-TA-020/CF) for 1 h at 37° C. The compound/hTNFα mixture well received 30 μL HEK-Blue™ TNFα cell suspension at 10000 cells/well, and then incubated at 37° C. with 5% CO2 for 24 h. The final concentration of hTNFα is […]. After incubation, 5 μL of induced cell supernatant was transferred to a new 384-well plate well (Coring 3764) to mix with 45 μL of QUANTI-Blue Solution. After 1 h incubation at 37° C., the plate was read using a spectrophotometer at 620 nm.
The percentage of inhibition was calculated by the following formula: % inhibition=(positive control−Sample)/(positive control−negative control)*100 • Positive control: OD620 reading of cells with hTNFα stimulation. • Negative control: OD620 reading of cells without hTNFα stimulation. • Sample: OD620 reading of cells with compound at specific concentration and hTNFα stimulation
The % inhibition was plotted against compound concentration in logarithmic scale and the IC50 was rendered using 4-parameter nonlinear regression (GraphPad Prism).

Sequence of TNFα (P01375 77-233 limits assumed): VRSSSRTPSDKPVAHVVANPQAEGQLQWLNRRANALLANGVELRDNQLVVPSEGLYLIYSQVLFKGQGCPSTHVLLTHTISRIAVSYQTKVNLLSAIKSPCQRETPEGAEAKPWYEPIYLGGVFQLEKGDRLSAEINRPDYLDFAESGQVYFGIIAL

IC50	SMILES
< 25 nM	CN1C(=O)c2ccnc(OC(F)F)c2[C@H]2C[C@@H]1c1nn3ccc(-c4cnc([C@]5(O)C[C@@](C)(O)C5)nc4)cc3c12 [Example 320, (7R,14S)-1-(difluoromethoxy)-12-(2-((1s,3R)-1,3-dihydroxy-3-methylcyclobutyl)pyrimidin-5-yl)-6-methyl-6,7-dihydro-7,14-methanopyrido[4,3-c]pyrido[1′,2′:1,5]pyrazolo[4,3-f]azocin-5 (14H)-one]
25 to 100 nM	[2H]C([2H])([2H])N1C(=O)c2cccc(OC(F)F)c2[C@H]2C[C@@H]1c1nn3cc(F)c(-c4cnc([C@]5(O)C[C@@](C)(N)C5)cn4)cc3c12 [Example 260]
< 25 nM	[2H]C([2H])([2H])N1C(=O)c2cccc(OC(F)F)c2[C@H]2C[C@@H]1c1nn3cc(C)c(-c4cnc(C(C)(C)N)nc4)cc3c12 [Example 300]
< 25 nM	CN1C(=O)c2cccc(OC(F)F)c2[C@H]2C[C@@H]1c1nn3ccc(-c4cnc([C@@](C)(O)CO)nc4)cc3c12 [Example 84]
< 25 nM	C[C@H](O)c1ncc(-c2ccn3nc4c(c3c2)[C@@H]2C[C@H]4N(C)C(=O)c3cccc(OC(F)F)c32)cn1 [Example 93]
< 25 nM	CN1C(=O)c2cccc(OC(F)F)c2[C@H]2C[C@@H]1c1nn3ccc(-c4cnc([C@]5(N)C[C@@](C)(C#N)C5)nc4)nc3c12 [Example 7, (1R,3s)-3-amino-3-(5-((7R,14S)-1-(difluoromethoxy)-6-methyl-5-oxo-5,6,7,14-tetrahydro-7,14-methanobenzo[c]pyrimido[1′,2′:1,5]pyrazolo[4,3-f]azocin-12-yl)pyrimidin-2-yl)-1-methylcyclobutane-1-carbonitrile]
25 to 100 nM	[2H]C([2H])([2H])N1C(=O)c2cccc(OC(F)F)c2[C@H]2C[C@@H]1c1nn3cc(F)c(-c4cnc([C@]5(O)C[C@@](C)(N)C5)nc4)nc3c12 [Example 185]
25 to 100 nM	[2H]C([2H])([2H])N1C(=O)c2cccc(OC(F)F)c2[C@H]2C[C@@H]1c1nn3cc(F)c(-c4cnc([C@]5(N)C[C@@H](O)C5)nc4)nc3c12 [Example 205]
< 25 nM	CN1C(=O)c2cccc(OC(F)F)c2[C@H]2C[C@@H]1c1nn3ccc(-c4cnc([C@]5(O)C[C@@H](O)C5)nc4)cc3c12 [Example 82]
< 25 nM	CN1C(=O)c2cccc(C3CC3)c2[C@H]2C[C@@H]1c1nn3ccc(-c4ccc(P(C)(C)=O)nc4)cc3c12 [Example 304]
< 25 nM	CN1C(=O)c2cccc(OC(F)F)c2[C@H]2C[C@@H]1c1nn3ccc(-c4cnc([C@]5(N)C[C@@](C)(O)C5)nc4)cc3c12 [Example 28]
< 25 nM	[2H]C([2H])([2H])N1C(=O)c2cccc(OC(F)F)c2[C@H]2C[C@@H]1c1nn3ccc(-c4cnc([C@]5(O)C[C@@](C)(C#N)C5)c(F)c4)nc3c12 [Example 249]
< 25 nM	CN1C(=O)c2cccc(OC(F)F)c2[C@H]2C[C@@H]1c1nn3cnc(-c4ccc(P(C)(C)=O)c(F)c4)cc3c12 [Example 144]
< 25 nM	CN1C(=O)c2cccc(OC(F)F)c2[C@H]2C[C@@H]1c1nn3ccc(-c4cnc([C@@H](O)C(C)(C)O)nc4)cc3c12 [Example 134]
< 25 nM	[2H]C([2H])([2H])N1C(=O)c2cccc(OC(F)F)c2[C@H]2C[C@@H]1c1nn3ccc(-c4cnc([C@]5(O)C[C@@](C)(O)C5)nc4)cc3c12 [Example 33]
< 25 nM	C[C@](O)(CC#N)c1ncc(-c2cc3c4c(nn3cc2F)[C@H]2C[C@@H]4c3c(OC(F)F)cccc3C(=O)N2)cn1 [Example 192]
< 25 nM	CC(=O)N1CCN(c2ncc(-c3ccn4nc5c(c4c3)[C@@H]3C[C@H]5N(C)C(=O)c4cccc(OC(F)F)c43)cn2)CC1 [Example 148]
< 25 nM	C[C@]1(O)C[C@](N)(c2ncc(-c3ccn4nc5c(c4c3)[C@@H]3C[C@H]5NC(=O)c4cccc(OC(F)F)c43)cn2)C1 [Example 197]

IC50	SMILES
< 25 nM	[2H]C([2H])([2H])N1C(=O)c2cccc(OC(F)F)c2[C@H]2C[C@@H]1c1nn3cc(F)c(-c4cnc(C5(N)COC5)nc4)cc3c12 [Example 206]
< 25 nM	[2H]C([2H])([2H])N1C(=O)c2cccc(OC(F)F)c2[C@H]2C[C@@H]1c1nn3ccc(-c4cnc([C@]5(N)CCOC5)nc4)nc3c12 [Example 193]
25 to 100 nM	[2H]C([2H])([2H])N1C(=O)c2cccc(OC(F)F)c2[C@H]2C[C@@H]1c1nn3ccc(-c4cnc([C@@]5(N)CCOC5)nc4)nc3c12 [Example 194]
< 25 nM	NC1(c2ccc(-c3ccn4nc5c(c4c3)[C@@H]3C[C@H]5NC(=O)c4cccc(OC(F)F)c43)cn2)CCC1 [Example 203]
< 25 nM	[2H]C([2H])([2H])N1C(=O)c2cccc(OC(F)F)c2[C@H]2C[C@@H]1c1nn3ccc(-c4cnc([C@](C)(N)CC#N)nc4)cc3c12 [Example 264]
< 25 nM	CN1C(=O)c2cccc(OC(F)F)c2[C@H]2C[C@@H]1c1nn3ccc(-c4ccnc(OCP(C)(C)=O)c4)cc3c12 [Example 70]
< 25 nM	[2H]C([2H])([2H])N1C(=O)c2cccc(OC(F)F)c2[C@H]2C[C@@H]1c1nn3cnc(-c4cnc([C@]5(N)C[C@@](C)(C#N)C5)c(F)c4)cc3c12 [Example 175]
< 25 nM	CN1C(=O)c2cccc(C(F)F)c2[C@H]2C[C@@H]1c1nn3ccc(-c4cnc(C5(N)CCC5)nc4)cc3c12 [Example 299]
< 25 nM	[2H]C([2H])([2H])N1C(=O)c2cccc(OC(F)F)c2[C@H]2C[C@@H]1c1nn3cc(F)c(-c4cnc([C@]5(N)C[C@@](C)(O)C5)c(F)c4)nc3c12 [Example 188]
< 25 nM	[2H]C([2H])([2H])N1C(=O)c2cccc(OC(F)F)c2[C@H]2C[C@@H]1c1nn3cc(C)c(-c4cnc([C@]5(N)C[C@@](C)(O)C5)nc4)nc3c12 [Example 215]
< 25 nM	O=C1N[C@@H]2C[C@H](c3c(OC(F)F)cccc31)c1c2nn2ccc(-c3cnc(N4CCOCC4)nc3)cc12 [Example 162]
< 25 nM	C#Cc1cccc2c1[C@H]1C[C@H](c3nn4ccc(-c5cnc([C@]6(O)C[C@@](C)(O)C6)nc5)cc4c31)N(C)C2=O [Example 305]
100 to 1000 nM	[2H]C([2H])([2H])N1C(=O)c2cccc(OC(F)F)c2[C@H]2C[C@@H]1c1nn3ccc(-c4cnc([C@]5(C#N)C[C@@](C)(N)C5)nc4)nc3c12 [Example 232]
< 25 nM	CN1C(=O)c2cccc(OC(F)F)c2[C@H]2C[C@@H]1c1nn3ccc(-c4ccc([C@]5(N)C[C@@](C)(C(=O)O)C5)nc4)cc3c12 [Example 165]
< 25 nM	[2H]C([2H])([2H])N1C(=O)c2ccc(F)c(OC(F)F)c2[C@H]2C[C@@H]1c1nn3ccc(-c4cnc([C@]5(N)C[C@@](C)(O)C5)c(F)c4)nc3c12 [Example 289]
< 25 nM	C[C@]1(C#N)C[C@](N)(c2ncc(-c3ccn4nc5c(c4n3)[C@@H]3C[C@H]5NC(=O)c4cccc(OC(F)F)c43)cc2F)C1 [Example 173]
< 25 nM	[2H]C([2H])([2H])N1C(=O)c2cccc(OC(F)F)c2[C@H]2C[C@@H]1c1nn3ccc(-c4cnc(C(C)(C)N)nc4)nc3c12 [Example 286]
< 25 nM	[2H]C([2H])([2H])N1C(=O)c2cccc(OC(F)F)c2[C@H]2C[C@@H]1c1nn3ccc(-c4cnc([C@]5(O)C[C@@](C)(C#N)C5)nc4)nc3c12 [Example 271]
